Measurements from publication PMC3356457 (Nature, 2012).
Where two headings read alike, the source gives them in different places.

Columns and labels:
hKOR E297A = hKOR E297A (Homo sapiens, UniProt P41145, E297A); format: binding
KOR [1] = biological target: KOR (Homo sapiens, UniProt P41145); format: cell-based
KOR [2] = details: cited from earlier work
[3] = cited from earlier work
[4] = cited from earlier work; remark: listed apart in the source
KOR [5] = details: cited from earlier work; remark: listed apart in the source
KOR [6] = details: agonist; cited from earlier work
KOR [7] = details: cited from earlier work; remark: listed apart in the source

Sequence of KOR (Homo sapiens, UniProt P41145) (P41145 whole entry): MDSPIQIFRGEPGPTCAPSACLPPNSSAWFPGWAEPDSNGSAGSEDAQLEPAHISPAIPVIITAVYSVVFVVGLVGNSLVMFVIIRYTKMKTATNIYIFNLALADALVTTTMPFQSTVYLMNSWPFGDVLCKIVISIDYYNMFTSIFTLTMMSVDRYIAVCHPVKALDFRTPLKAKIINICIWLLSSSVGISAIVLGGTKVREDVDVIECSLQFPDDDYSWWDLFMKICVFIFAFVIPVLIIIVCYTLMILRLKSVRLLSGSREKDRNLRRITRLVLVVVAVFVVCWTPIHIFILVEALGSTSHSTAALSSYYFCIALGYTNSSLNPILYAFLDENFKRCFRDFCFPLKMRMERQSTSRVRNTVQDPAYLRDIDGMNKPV
Sequence of hKOR E297A (P41145 whole entry E297A): as the sequence (P41145 whole entry) above, with E297A counted along it

NC(N)=Nc1ccc2[nH]c3c(c2c1)C[C@@]1(O)[C@H]2Cc4ccc(O)c5c4[C@@]1(CCN2CC1CC1)[C@H]3O5 [GNTI]
Effect of Glu297Ala mutation on binding (hKOR E297A): significant drop

CC(C)[C@@H](CN1CC[C@@](C)(c2cccc(O)c2)[C@@H](C)C1)NC(=O)[C@H]1Cc2ccc(O)cc2CN1 [JDTic, (3R)-7-hydroxy-N-[(1S)-1-(((3R,4R)-4-(3-hydroxyphenyl)-3,4-dimethyl-1-piperidinyl)methyl)-2-methylpropyl]-1,2,3,4-tetrahydro-3-isoquinoline-carboxamide]
Effect of Glu297Ala mutation on binding (hKOR E297A): did not affect | Agonist activity, Gi-mediated (canonical) signaling (KOR [1]): devoid of agonist activity | Blockade of the effects of agonist U69593, Gi-mediated signaling (KOR [1]): completely blocked | Effect on κ-agonist U50,488-induced antinociception (KOR [2]): blocks | Effect on μ-agonist induced analgesia [3]: not antagonizing | Activity in rodent models of depression, anxiety, stress-induced cocaine relapse, and nicotine withdrawal [4]: robust activity

COC(=O)[C@@H]1C[C@H](OC(=O)CSC#N)C(=O)[C@H]2[C@@]1(C)CC[C@H]1C(=O)O[C@H](c3ccoc3)C[C@]21C [RB-64, 22-thiocyanatosalvinorin A]
Ki (KOR [5]): 0.59 nM | EC50 (KOR [6]): 0.077 nM
